Test results published in article PMC2361651 (British Journal of Cancer, 2005).

What was measured:
[1] = system: coagulation / fibrinolytic pathway; assay: Coagulation parameters and expanded coagulation series in patients; format: in vivo, human
Method: During the dose escalation stage of the protocol, a standard series of coagulation parameters (APPT, INR and fibrinogen) was explored at baseline prior to therapy and every 2 weeks thereafter. In the dose expansion phase of the protocol, in response to the clinical occurrence of two separate venous thrombotic episodes in study patients, an expanded coagulation series was performed.
At each time point, blood was collected in citrated and EDTA tubes (Becton-Dickinson Vacutainer Systems, Europe). The samples from the citrated tubes were immediately centrifuged (at 4°C for 10 min at 3000 r.p.m.) supernatants pooled into inert plastic, centrifuged again (at 4°C, 10 min at 3000 r.p.m.) and the resultant sample stored in inert plastic tubes at −70°C until analysis. The sample taken into EDTA was centrifuged (at 4°C, for 10 min at 3000 r.p.m.), the supernatant decanted into inert plastic tubes and again stored at −70°C until analysis.

[2] = cited from earlier work
[3] = system: treatment refractory solid tumours; assay: Tumour response (WHO response criteria); format: in vivo, human
Text: The study protocol was approved by the Research Ethics Committee of the Royal […] Trust. Written informed consent was obtained from all participants. All patients had treatment refractory solid tumours and were required to have at least one tumour deposit suitable for DCE-MRI evaluation. A suitable lesion had to be ⩾2 cm in size and in an anatomical position not subject to significant respiratory excursion. […] Exclusion criteria included patients with a known history of allergy to radiologic contrast agents or to Cremophor®; a Karnovsky performance status of <60%; a history of myocardial infarction, severe or unstable angina within 6 months of the study; diabetes mellitus with clinical evidence of severe peripheral vascular disease or ulceration; a medical condition or device implant that would interfere with or prevent MRI scans; or a serious concomitant medical condition that could interfere with the participation in the study or interpretation of study results.

[4] = 27 patients treated, two not evaluable

SMILES: Cc1cc(C)c(/C=C2\C(=O)Nc3ccccc32)[nH]1 [SU5416, Z-3-[(2,4-dimethylpyrrol-5-yl)methylidenyl]-2-indolinone]
- change in INR, APTT or fibrinogen ([1]; baseline and every 2 weeks): No change
- reduction in plasmin–anti-plasmin complexes, median change ([1]; six patients, expanded panel): 12.7 µg/L
- reduction in plasmin–anti-plasmin complexes, range of change ([1]; six patients, expanded panel): 0 to 36 µg/L
- acute increase in plasminogen activator inhibitor (PAI-1) levels, median change ([1]; six patients, expanded panel, recovery at 24 h): 37.3 IU
- degree of induction of SU5416 metabolism ([2]; same schedule, sampling from day 1, ref Cropp et al, 1999, Rosen et al): 69%
- dose at which DLT (projectile vomiting and severe headache) was reported ([2]; same twice weekly schedule, ref Rosen et al, 1999): 190 mg m^−2
- patients with progressive disease as best response [3, 4]: 14 patients
- patients with stable disease at 6 weeks [3, 4]: 12 patients
- patients remaining on therapy for more than 12 weeks ([3]; haemangioendothelioma, ovarian and adrenocortical carcinoma): three
